Assay results published in patent US20230398130A1, “METHODS AND COMPOSITIONS FOR DIFFERENTIATING STEM CELLS” (Massachusetts Institute of Technology, priority 2020, published 2023).

Key:
ISC-enriched organoids [1] = test: Primary screen, 384-well 2.5-D organoid differentiation (ENR+CD, 6 days, Target Selective Inhibitor Library, vs whole-plate median): ATP (CellTiter-Glo 3D, CTG); settings: primary screen; for Dose.FC.CTG: FC vs plate median; for Z.CTG: standard z score; for SSMD.CTG: strictly standardized mean difference; for Dose.FC.CTG (log 2 fold change): vs plate median
ISC-enriched organoids [2] = test: Primary screen, 384-well 2.5-D organoid differentiation (ENR+CD, 6 days): carbachol-induced lysozyme secretion (LYZ.S); format: cell-based, murine; settings: primary screen; for Dose.FC.LYZ.S: FC vs plate median; for Z.LYZ.S: standard z score; for SSMD.LYZ.S: strictly standardized mean difference; for Dose.FC.LYZ.S (log 2 fold change): vs plate median
Excerpt: (§1) High-throughput screening.

ISC-enriched organoids [3] = test: Primary screen, 384-well 2.5-D organoid differentiation (ENR+CD, 6 days): basal lysozyme secretion (LYZ.NS); format: cell-based, murine; settings: primary screen; for Dose.FC.LYZ.NS: FC vs plate median; for Z.LYZ.NS: standard z score; for SSMD.LYZ.NS: strictly standardized mean difference; for Dose.FC.LYZ.NS (log 2 fold change): vs plate median
Excerpt: as §1

[4] = 1st of the 4 dose lines of the treatment (dose not given)
[5] = 2nd of the 4 dose lines of the treatment (dose not given)
[6] = 3rd of the 4 dose lines of the treatment (dose not given)
[7] = 4th of the 4 dose lines of the treatment (dose not given)

Clc1ccc(N/N=C(\c2ccccc2)c2ccccn2)nc1 [JIB-04]
Dose.FC.CTG (ISC-enriched organoids [1]; Dose 0.08 uM): 0.254 log 2 fold change | Z.CTG (ISC-enriched organoids [1]; Dose 0.08 uM): 0.607 | Dose.FC.CTG (ISC-enriched organoids [1]; Dose 0.40 uM): 0.108 log 2 fold change | Z.CTG (ISC-enriched organoids [1]; Dose 0.40 uM): 0.258 | Dose.FC.CTG (ISC-enriched organoids [1]; Dose 2.00 uM): 0.092 log 2 fold change | Z.CTG (ISC-enriched organoids [1]; Dose 2.00 uM): 0.219 | Dose.FC.CTG (ISC-enriched organoids [1]; Dose 10.00 uM): −0.181 log 2 fold change | Z.CTG (ISC-enriched organoids [1]; Dose 10.00 uM): −0.433 | SSMD.CTG (ISC-enriched organoids [1]; [4]): 0.552 | SSMD.CTG (ISC-enriched organoids [1]; [5]): 0.331 | SSMD.CTG (ISC-enriched organoids [1]; [6]): 0.282 | SSMD.CTG (ISC-enriched organoids [1]; [7]): −0.531 | Dose.FC.LYZ.S (ISC-enriched organoids [2]; Dose 0.08 uM): 0.203 log 2 fold change | Dose.FC.LYZ.S (ISC-enriched organoids [2]; Dose 0.40 uM): 0.084 log 2 fold change | Dose.FC.LYZ.S (ISC-enriched organoids [2]; Dose 2.00 uM): −0.056 log 2 fold change | Dose.FC.LYZ.S (ISC-enriched organoids [2]; Dose 10.00 uM): −0.085 log 2 fold change | Z.LYZ.S (ISC-enriched organoids [2]; [4]): 1.312 | Z.LYZ.S (ISC-enriched organoids [2]; [5]): 0.545 | Z.LYZ.S (ISC-enriched organoids [2]; [6]): −0.365 | Z.LYZ.S (ISC-enriched organoids [2]; [7]): −0.552 | SSMD.LYZ.S (ISC-enriched organoids [2]; [4]): 0.895 | SSMD.LYZ.S (ISC-enriched organoids [2]; [5]): 0.407 | SSMD.LYZ.S (ISC-enriched organoids [2]; [6]): −0.339 | SSMD.LYZ.S (ISC-enriched organoids [2]; [7]): −0.195 | Dose.FC.LYZ.NS (ISC-enriched organoids [3]; Dose 0.08 uM): 0.178 log 2 fold change | Z.LYZ.NS (ISC-enriched organoids [3]; Dose 0.08 uM): 1.549 | Dose.FC.LYZ.NS (ISC-enriched organoids [3]; Dose 0.40 uM): 0.030 log 2 fold change | Z.LYZ.NS (ISC-enriched organoids [3]; Dose 0.40 uM): 0.264 | Dose.FC.LYZ.NS (ISC-enriched organoids [3]; Dose 2.00 uM): 0.006 log 2 fold change | Z.LYZ.NS (ISC-enriched organoids [3]; Dose 2.00 uM): 0.048 | Dose.FC.LYZ.NS (ISC-enriched organoids [3]; Dose 10.00 uM): −0.153 log 2 fold change | Z.LYZ.NS (ISC-enriched organoids [3]; Dose 10.00 uM): −1.330 | SSMD.LYZ.NS (ISC-enriched organoids [3]; [4]): 0.941 | SSMD.LYZ.NS (ISC-enriched organoids [3]; [5]): 0.239 | SSMD.LYZ.NS (ISC-enriched organoids [3]; [6]): 0.042 | SSMD.LYZ.NS (ISC-enriched organoids [3]; [7]): −0.845

O=C(Nc1ccccc1Br)N[C@@H]1CCN(c2ccc(C(F)(F)F)cn2)C1 [SB705498]
Z.CTG (standard z score) (ISC-enriched organoids [1]; Dose 0.08 uM): 0.318 | Dose.FC.CTG (log 2 fold change) (ISC-enriched organoids [1]; Dose 0.08 uM): 0.133 | Z.CTG (standard z score) (ISC-enriched organoids [1]; Dose 0.40 uM): −0.102 | Dose.FC.CTG (log 2 fold change) (ISC-enriched organoids [1]; Dose 0.40 uM): −0.043 | Z.CTG (standard z score) (ISC-enriched organoids [1]; Dose 2.00 uM): −0.009 | Dose.FC.CTG (log 2 fold change) (ISC-enriched organoids [1]; Dose 2.00 uM): −0.004 | Z.CTG (standard z score) (ISC-enriched organoids [1]; Dose 10.00 uM): −0.089 | Dose.FC.CTG (log 2 fold change) (ISC-enriched organoids [1]; Dose 10.00 uM): −0.037 | Dose.FC.LYZ.S (log 2 fold change) (ISC-enriched organoids [2]; Dose 0.08 uM): 0.094 | Dose.FC.LYZ.S (log 2 fold change) (ISC-enriched organoids [2]; Dose 0.40 uM): 0.023 | Dose.FC.LYZ.S (log 2 fold change) (ISC-enriched organoids [2]; Dose 2.00 uM): −0.030 | Dose.FC.LYZ.S (log 2 fold change) (ISC-enriched organoids [2]; Dose 10.00 uM): −0.023 | Z.LYZ.NS (standard z score) (ISC-enriched organoids [3]; Dose 0.08 uM): 0.642 | Dose.FC.LYZ.NS (log 2 fold change) (ISC-enriched organoids [3]; Dose 0.08 uM): 0.074 | Z.LYZ.NS (standard z score) (ISC-enriched organoids [3]; Dose 0.40 uM): −0.433 | Dose.FC.LYZ.NS (log 2 fold change) (ISC-enriched organoids [3]; Dose 0.40 uM): −0.050 | Z.LYZ.NS (standard z score) (ISC-enriched organoids [3]; Dose 2.00 uM): −0.008 | Dose.FC.LYZ.NS (log 2 fold change) (ISC-enriched organoids [3]; Dose 2.00 uM): −0.001 | Z.LYZ.NS (standard z score) (ISC-enriched organoids [3]; Dose 10.00 uM): −0.154 | Dose.FC.LYZ.NS (log 2 fold change) (ISC-enriched organoids [3]; Dose 10.00 uM): −0.018

O=C(Nc1cc(C(F)(F)F)ccc1N1CCCCC1)c1ccncc1 [SRPIN340]
Z.CTG (standard z score) (ISC-enriched organoids [1]; Dose 0.08 uM): 1.005 | Dose.FC.CTG (log 2 fold change) (ISC-enriched organoids [1]; Dose 0.08 uM): 0.421 | Z.CTG (standard z score) (ISC-enriched organoids [1]; Dose 0.40 uM): 1.063 | Dose.FC.CTG (log 2 fold change) (ISC-enriched organoids [1]; Dose 0.40 uM): 0.445 | Z.CTG (standard z score) (ISC-enriched organoids [1]; Dose 2.00 uM): 1.083 | Dose.FC.CTG (log 2 fold change) (ISC-enriched organoids [1]; Dose 2.00 uM): 0.453 | Z.CTG (standard z score) (ISC-enriched organoids [1]; Dose 10.00 uM): 1.115 | Dose.FC.CTG (log 2 fold change) (ISC-enriched organoids [1]; Dose 10.00 uM): 0.467 | Dose.FC.LYZ.S (log 2 fold change) (ISC-enriched organoids [2]; Dose 0.08 uM): 0.112 | Dose.FC.LYZ.S (log 2 fold change) (ISC-enriched organoids [2]; Dose 0.40 uM): 0.098 | Dose.FC.LYZ.S (log 2 fold change) (ISC-enriched organoids [2]; Dose 2.00 uM): 0.100 | Dose.FC.LYZ.S (log 2 fold change) (ISC-enriched organoids [2]; Dose 10.00 uM): 0.078 | Z.LYZ.NS (standard z score) (ISC-enriched organoids [3]; Dose 0.08 uM): 1.004 | Dose.FC.LYZ.NS (log 2 fold change) (ISC-enriched organoids [3]; Dose 0.08 uM): 0.115 | Z.LYZ.NS (standard z score) (ISC-enriched organoids [3]; Dose 0.40 uM): 0.348 | Dose.FC.LYZ.NS (log 2 fold change) (ISC-enriched organoids [3]; Dose 0.40 uM): 0.040 | Z.LYZ.NS (standard z score) (ISC-enriched organoids [3]; Dose 2.00 uM): 0.846 | Dose.FC.LYZ.NS (log 2 fold change) (ISC-enriched organoids [3]; Dose 2.00 uM): 0.097 | Z.LYZ.NS (standard z score) (ISC-enriched organoids [3]; Dose 10.00 uM): 0.192 | Dose.FC.LYZ.NS (log 2 fold change) (ISC-enriched organoids [3]; Dose 10.00 uM): 0.022

CCOC(=O)c1ccc(N2NC(=O)/C(=C/c3ccc([N+](=O)[O-])o3)C2=O)cc1 [PYR-41]
Z.CTG (standard z score) (ISC-enriched organoids [1]; Dose 0.08 uM): 0.609 | Dose.FC.CTG (log 2 fold change) (ISC-enriched organoids [1]; Dose 0.08 uM): 0.255 | Z.CTG (standard z score) (ISC-enriched organoids [1]; Dose 0.40 uM): 0.762 | Dose.FC.CTG (log 2 fold change) (ISC-enriched organoids [1]; Dose 0.40 uM): 0.319 | Z.CTG (standard z score) (ISC-enriched organoids [1]; Dose 2.00 uM): 0.385 | Dose.FC.CTG (log 2 fold change) (ISC-enriched organoids [1]; Dose 2.00 uM): 0.161 | Z.CTG (standard z score) (ISC-enriched organoids [1]; Dose 10.00 uM): 0.229 | Dose.FC.CTG (log 2 fold change) (ISC-enriched organoids [1]; Dose 10.00 uM): 0.096 | Dose.FC.LYZ.S (log 2 fold change) (ISC-enriched organoids [2]; Dose 0.08 uM): 0.193 | Dose.FC.LYZ.S (log 2 fold change) (ISC-enriched organoids [2]; Dose 0.40 uM): 0.076 | Dose.FC.LYZ.S (log 2 fold change) (ISC-enriched organoids [2]; Dose 2.00 uM): 0.049 | Dose.FC.LYZ.S (log 2 fold change) (ISC-enriched organoids [2]; Dose 10.00 uM): 0.129 | Z.LYZ.NS (standard z score) (ISC-enriched organoids [3]; Dose 0.08 uM): 1.305 | Dose.FC.LYZ.NS (log 2 fold change) (ISC-enriched organoids [3]; Dose 0.08 uM): 0.150 | Z.LYZ.NS (standard z score) (ISC-enriched organoids [3]; Dose 0.40 uM): 0.777 | Dose.FC.LYZ.NS (log 2 fold change) (ISC-enriched organoids [3]; Dose 0.40 uM): 0.089 | Z.LYZ.NS (standard z score) (ISC-enriched organoids [3]; Dose 2.00 uM): 0.568 | Dose.FC.LYZ.NS (log 2 fold change) (ISC-enriched organoids [3]; Dose 2.00 uM): 0.065 | Z.LYZ.NS (standard z score) (ISC-enriched organoids [3]; Dose 10.00 uM): 0.861 | Dose.FC.LYZ.NS (log 2 fold change) (ISC-enriched organoids [3]; Dose 10.00 uM): 0.099
